Test results: paper PMC10531071, “Furmonertinib, a Third-Generation EGFR Tyrosine Kinase Inhibitor, Overcomes Multidrug Resistance through Inhibiting ABCB1 and ABCG2 in Cancer Cells” (International Journal of Molecular Sciences, 2023)

Experiments:
[1] = molecular target: ABCB1 (P-glycoprotein; MDR1) (Homo sapiens, UniProt P08183); test: vanadate-sensitive ATPase stimulation in High-Five insect cell membrane vesicles; also calcein-AM efflux inhibition in MDR19-HEK293 cells (IC50 […]); format: biochemical
Sequence of ABCB1 (P-glycoprotein; MDR1) (P08183 whole entry): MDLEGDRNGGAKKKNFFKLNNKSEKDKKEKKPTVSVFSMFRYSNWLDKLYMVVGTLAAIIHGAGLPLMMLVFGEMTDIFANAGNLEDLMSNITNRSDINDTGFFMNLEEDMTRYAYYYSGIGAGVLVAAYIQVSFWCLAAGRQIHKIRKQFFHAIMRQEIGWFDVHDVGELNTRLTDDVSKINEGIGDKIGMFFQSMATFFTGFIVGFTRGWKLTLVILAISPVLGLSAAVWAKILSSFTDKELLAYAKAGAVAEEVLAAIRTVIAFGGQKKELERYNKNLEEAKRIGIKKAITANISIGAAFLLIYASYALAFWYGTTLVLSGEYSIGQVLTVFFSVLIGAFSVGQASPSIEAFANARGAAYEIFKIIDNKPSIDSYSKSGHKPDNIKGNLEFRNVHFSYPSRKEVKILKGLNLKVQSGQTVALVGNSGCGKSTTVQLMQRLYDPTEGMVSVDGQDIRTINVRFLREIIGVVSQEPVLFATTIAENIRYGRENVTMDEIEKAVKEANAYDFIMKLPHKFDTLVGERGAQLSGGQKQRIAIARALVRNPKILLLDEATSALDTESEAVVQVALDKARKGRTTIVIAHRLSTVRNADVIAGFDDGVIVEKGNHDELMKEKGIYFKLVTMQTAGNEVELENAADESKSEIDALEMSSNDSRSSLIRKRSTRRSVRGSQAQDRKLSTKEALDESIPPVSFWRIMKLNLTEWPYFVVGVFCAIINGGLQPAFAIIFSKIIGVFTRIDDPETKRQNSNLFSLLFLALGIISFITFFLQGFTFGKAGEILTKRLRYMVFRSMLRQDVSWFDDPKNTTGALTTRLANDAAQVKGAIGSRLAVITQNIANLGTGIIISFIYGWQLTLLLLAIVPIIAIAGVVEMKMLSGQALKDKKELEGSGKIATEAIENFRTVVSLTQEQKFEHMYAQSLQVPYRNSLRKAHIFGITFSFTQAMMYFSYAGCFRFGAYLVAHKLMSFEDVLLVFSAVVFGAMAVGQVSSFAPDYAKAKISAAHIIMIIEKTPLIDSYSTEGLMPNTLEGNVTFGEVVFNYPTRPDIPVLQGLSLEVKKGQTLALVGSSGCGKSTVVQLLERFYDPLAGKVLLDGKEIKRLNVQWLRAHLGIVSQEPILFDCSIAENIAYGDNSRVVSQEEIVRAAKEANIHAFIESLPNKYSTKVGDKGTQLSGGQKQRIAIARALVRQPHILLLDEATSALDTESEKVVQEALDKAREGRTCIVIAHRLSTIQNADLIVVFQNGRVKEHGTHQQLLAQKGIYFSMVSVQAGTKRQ

ABCG2 (BCRP; MXR; ABCP) = molecular target: T1, ABCG2 (BCRP; MXR; ABCP) (Homo sapiens, UniProt Q9UNQ0); test: vanadate-sensitive ATPase stimulation in High-Five insect cell membrane vesicles; also PhA efflux inhibition in R482-HEK293 cells (IC50 […]); format: biochemical
T1 sequence (Q9UNQ0 1-655): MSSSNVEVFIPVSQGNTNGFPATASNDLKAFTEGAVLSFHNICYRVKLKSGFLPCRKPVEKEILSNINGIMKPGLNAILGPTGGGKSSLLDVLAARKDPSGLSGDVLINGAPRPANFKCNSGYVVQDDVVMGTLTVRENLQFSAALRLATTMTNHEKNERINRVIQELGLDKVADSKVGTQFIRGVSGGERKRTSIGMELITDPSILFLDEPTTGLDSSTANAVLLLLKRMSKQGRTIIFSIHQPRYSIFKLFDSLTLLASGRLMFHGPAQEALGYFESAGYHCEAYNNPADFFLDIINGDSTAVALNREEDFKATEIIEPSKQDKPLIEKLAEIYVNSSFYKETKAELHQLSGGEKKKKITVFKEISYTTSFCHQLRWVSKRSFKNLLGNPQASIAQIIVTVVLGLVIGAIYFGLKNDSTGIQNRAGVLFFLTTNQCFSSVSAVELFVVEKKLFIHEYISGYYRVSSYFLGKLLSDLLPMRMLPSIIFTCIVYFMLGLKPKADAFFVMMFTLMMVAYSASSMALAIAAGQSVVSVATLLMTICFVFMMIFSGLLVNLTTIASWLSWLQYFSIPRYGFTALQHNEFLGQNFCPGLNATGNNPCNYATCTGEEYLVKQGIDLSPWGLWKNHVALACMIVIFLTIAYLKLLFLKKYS

- EC50 [1]: ~600 nM
- EC50 (ABCG2 (BCRP; MXR; ABCP)): ~3 nM
Structure (SMILES): C=CC(=O)Nc1cc(Nc2nccc(-c3cn(C)c4ccccc34)n2)c(OCC(F)(F)F)nc1N(C)CCN(C)C [furmonertinib]
